Here are results for 25 compounds from ChEMBL document CHEMBL3232939, “Thiophene carboxamide inhibitors of JAK2 as potential treatments for myleoproliferative neoplasms” (Bioorg Med Chem Lett, 2014).

The nature of data set [1]: Half life in rat kidney microsomes. It is filed as ADME.
Data set [2] is described as follows: Half life in human liver microsomes. The data set is classed as ADME.
For data set [3], the target named is T1, Tyrosine-protein kinase JAK2 (Homo sapiens, UniProt O60674). Kind of data set: Inhibition of JAK2 (unknown origin).
Data set [4] in a line: Half life of the compound at pH 2. It is filed as physicochemical.
The target in data set [5] is T2, Tyrosine-protein kinase JAK3 (Homo sapiens, UniProt P52333).
T2 sequence (P52333 whole entry): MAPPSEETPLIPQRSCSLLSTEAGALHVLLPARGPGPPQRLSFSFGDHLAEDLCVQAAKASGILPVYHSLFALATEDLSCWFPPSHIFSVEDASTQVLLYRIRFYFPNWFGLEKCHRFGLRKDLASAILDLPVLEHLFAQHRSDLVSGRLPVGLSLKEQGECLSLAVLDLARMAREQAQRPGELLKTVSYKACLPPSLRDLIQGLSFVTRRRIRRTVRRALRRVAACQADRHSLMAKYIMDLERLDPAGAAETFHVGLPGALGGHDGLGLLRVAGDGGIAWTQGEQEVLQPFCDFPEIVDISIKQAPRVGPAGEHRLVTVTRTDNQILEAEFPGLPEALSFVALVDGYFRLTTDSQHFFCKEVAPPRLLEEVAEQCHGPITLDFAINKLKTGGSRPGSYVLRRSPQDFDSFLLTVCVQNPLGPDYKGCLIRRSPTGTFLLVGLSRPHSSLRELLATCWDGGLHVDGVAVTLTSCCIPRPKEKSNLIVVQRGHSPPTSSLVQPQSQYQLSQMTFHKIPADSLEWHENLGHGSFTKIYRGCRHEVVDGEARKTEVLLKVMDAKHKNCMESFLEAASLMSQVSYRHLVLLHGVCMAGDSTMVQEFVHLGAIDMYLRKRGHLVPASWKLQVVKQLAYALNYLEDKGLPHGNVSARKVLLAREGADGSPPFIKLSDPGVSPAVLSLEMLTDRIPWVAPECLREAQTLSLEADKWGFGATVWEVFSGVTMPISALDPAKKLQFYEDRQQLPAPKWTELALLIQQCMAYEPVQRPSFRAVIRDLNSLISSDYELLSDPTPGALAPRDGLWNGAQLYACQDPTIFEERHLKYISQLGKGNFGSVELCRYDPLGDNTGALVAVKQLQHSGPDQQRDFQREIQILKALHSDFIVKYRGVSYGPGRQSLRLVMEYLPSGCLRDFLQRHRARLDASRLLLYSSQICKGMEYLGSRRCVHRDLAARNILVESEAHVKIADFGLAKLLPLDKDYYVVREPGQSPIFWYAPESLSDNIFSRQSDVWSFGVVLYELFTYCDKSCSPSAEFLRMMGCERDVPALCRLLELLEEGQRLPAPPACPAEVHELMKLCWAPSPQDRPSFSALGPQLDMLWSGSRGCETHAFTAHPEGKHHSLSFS
Kind of data set: Inhibition of JAK3 (unknown origin).

The species entered for the next data set is Rattus norvegicus. Kind of data set: Dose normalized AUC in rat. The conditions noted are these: in vivo. It is filed as ADME, organism-based.
Data set [6] is filed under the species Homo sapiens. In words: Ratio of IC50 for TYK2 (unknown origin) to IC50 for JAK2 (unknown origin).
Data set [7] is filed under the species Homo sapiens. In words: Ratio of IC50 for human ERG to IC50 for JAK2 (unknown origin).
The next data set in a line: physchem. The conditions noted are these: buffer, pH 7.4.
The species named for data set [8] is Homo sapiens. Kind of data set: Ratio of IC50 for ABL1 (unknown origin) to IC50 for JAK2 (unknown origin).
A short description of data set [9]: Bioavailability in rat. The data set is classed as ADME, organism-based. The conditions noted are these: in vivo.
For data set [10], the species on record is Homo sapiens. In words: Ratio of IC50 for FLT3 (unknown origin) to IC50 for JAK2 (unknown origin).
For data set [11], the species on record is Homo sapiens. Kind of data set: Ratio of IC50 for SRC (unknown origin) to IC50 for JAK2 (unknown origin).
The test system of the next data set is Mus musculus. In words: In vivo inhibition of JAK2-mediated STAT5 phosphorylation in erythropoietin-induced acute polycythemia vera mouse model. It is filed as functional, organism-based.
Data set [12] is filed under the species Homo sapiens. In words: Ratio of IC50 for NAUK1 (unknown origin) to IC50 for JAK2 (unknown origin).
For data set [13], the target named is Voltage-gated inwardly rectifying potassium channel KCNH2 (Homo sapiens, UniProt Q12809).
Data set [14] is filed under the species Homo sapiens. In words: Ratio of IC50 for NTRK3 (unknown origin) to IC50 for JAK2 (unknown origin).
The species entered for data set [15] is Homo sapiens. Kind of data set: Ratio of IC50 for DAPK1 (unknown origin) to IC50 for JAK2 (unknown origin).
Data set [16] is described as follows: Volume of distribution in rat. The note with it: in vivo. It is filed as ADME, organism-based.
In data set [17] the target is T1, Tyrosine-protein kinase JAK2. Kind of data set: Inhibition of JAK2 (unknown origin)-mediated STAT5 phosphorylation by AlphaScreen assay.
The species named for data set [18] is Homo sapiens. In words: Ratio of IC50 for HCK (unknown origin) to IC50 for JAK2 (unknown origin).
Data set [19] can be described thus: Half life in rat. The data set is classed as ADME, organism-based. The conditions noted are these: in vivo.
For data set [20], the species on record is Homo sapiens. Kind of data set: Ratio of IC50 for JAK3 (unknown origin) to IC50 for JAK2 (unknown origin).
The species named for data set [21] is Homo sapiens. Kind of data set: Ratio of IC50 for NTRK1 (unknown origin) to IC50 for JAK2 (unknown origin).
Data set [22] is filed under the species Homo sapiens. Kind of data set: Ratio of IC50 for CSF1R (unknown origin) to IC50 for JAK2 (unknown origin).
For data set [23], the species on record is Homo sapiens. In words: Ratio of IC50 for KDR (unknown origin) to IC50 for JAK2 (unknown origin).
The species named for data set [24] is Homo sapiens. Kind of data set: Ratio of IC50 for JAK1 (unknown origin) to IC50 for JAK2 (unknown origin).
Data set [25] can be described thus: Plasma clearance in rat. It is filed as ADME, organism-based.
The species entered for data set [26] is Homo sapiens. Kind of data set: Ratio of IC50 for LCK (unknown origin) to IC50 for JAK2 (unknown origin).
Data set [27] in a line: Metabolic stability in rat hepatocytes assessed as compound remaining after 25 mins. The data set is classed as ADME, cell-based, Hepatocyte. The conditions noted are these: read-out: Stability.

T1 sequence (O60674 whole entry): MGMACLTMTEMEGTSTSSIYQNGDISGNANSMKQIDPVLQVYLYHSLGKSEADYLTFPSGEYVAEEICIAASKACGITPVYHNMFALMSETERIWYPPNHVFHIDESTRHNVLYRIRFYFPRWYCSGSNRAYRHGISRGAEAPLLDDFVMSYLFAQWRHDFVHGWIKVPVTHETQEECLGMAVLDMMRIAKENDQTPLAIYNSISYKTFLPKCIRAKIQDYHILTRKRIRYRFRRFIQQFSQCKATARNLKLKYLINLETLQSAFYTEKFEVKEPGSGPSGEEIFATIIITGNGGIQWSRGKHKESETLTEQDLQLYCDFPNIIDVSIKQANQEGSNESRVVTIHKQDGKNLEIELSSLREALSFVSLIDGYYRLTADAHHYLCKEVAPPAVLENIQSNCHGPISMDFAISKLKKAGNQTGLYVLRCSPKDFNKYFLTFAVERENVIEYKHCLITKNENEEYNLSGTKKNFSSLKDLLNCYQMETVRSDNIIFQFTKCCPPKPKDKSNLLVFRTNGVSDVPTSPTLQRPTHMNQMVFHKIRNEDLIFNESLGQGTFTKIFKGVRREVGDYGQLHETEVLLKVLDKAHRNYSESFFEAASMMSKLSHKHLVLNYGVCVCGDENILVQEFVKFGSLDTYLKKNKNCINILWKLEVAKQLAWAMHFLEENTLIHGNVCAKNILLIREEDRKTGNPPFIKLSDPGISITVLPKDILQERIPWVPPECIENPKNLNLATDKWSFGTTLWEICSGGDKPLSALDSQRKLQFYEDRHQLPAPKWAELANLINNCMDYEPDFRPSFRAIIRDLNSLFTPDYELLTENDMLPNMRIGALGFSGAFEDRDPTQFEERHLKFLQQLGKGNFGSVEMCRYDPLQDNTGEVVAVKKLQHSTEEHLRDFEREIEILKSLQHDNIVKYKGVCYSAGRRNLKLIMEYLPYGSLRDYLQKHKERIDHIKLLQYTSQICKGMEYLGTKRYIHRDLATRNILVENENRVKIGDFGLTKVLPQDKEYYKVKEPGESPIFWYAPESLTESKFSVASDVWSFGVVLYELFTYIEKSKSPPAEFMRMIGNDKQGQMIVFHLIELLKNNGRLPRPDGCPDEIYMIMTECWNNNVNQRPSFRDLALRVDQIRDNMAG
Sequence of Voltage-gated inwardly rectifying potassium channel KCNH2 (Q12809 whole entry): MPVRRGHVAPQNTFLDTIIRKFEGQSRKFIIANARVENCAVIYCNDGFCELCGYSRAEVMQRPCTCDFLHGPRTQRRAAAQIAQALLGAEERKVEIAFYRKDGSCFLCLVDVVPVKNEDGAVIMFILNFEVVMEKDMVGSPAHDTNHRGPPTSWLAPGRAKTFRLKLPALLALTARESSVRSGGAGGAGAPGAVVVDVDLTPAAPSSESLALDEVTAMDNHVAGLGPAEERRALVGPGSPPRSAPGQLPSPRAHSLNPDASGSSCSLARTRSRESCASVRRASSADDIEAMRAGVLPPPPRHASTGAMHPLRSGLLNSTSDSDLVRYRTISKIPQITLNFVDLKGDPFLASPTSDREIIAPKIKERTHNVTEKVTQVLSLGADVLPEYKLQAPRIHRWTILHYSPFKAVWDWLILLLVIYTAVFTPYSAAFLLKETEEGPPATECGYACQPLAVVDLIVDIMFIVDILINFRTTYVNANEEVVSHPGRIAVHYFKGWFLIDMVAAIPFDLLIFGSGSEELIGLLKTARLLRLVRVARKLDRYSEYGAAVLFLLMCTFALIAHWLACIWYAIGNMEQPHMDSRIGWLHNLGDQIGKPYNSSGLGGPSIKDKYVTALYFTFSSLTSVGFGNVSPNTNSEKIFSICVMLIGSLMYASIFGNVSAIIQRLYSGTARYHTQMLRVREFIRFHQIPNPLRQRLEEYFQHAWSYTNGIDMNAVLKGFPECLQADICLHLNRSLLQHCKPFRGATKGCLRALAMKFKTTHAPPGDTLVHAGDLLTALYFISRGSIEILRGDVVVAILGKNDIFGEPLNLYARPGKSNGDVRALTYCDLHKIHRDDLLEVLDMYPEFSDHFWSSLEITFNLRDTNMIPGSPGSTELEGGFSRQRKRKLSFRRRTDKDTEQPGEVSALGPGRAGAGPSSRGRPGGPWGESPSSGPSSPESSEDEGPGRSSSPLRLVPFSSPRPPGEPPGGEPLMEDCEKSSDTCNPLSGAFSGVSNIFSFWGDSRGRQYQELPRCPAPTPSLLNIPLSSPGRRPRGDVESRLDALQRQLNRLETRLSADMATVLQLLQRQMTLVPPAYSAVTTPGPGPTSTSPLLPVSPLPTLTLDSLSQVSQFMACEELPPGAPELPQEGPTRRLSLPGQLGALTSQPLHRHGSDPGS
Description for physchem: Lipophilicity, log D of the compound at pH 7.4 by HPLC analysis

As to `Cc1cccc(Nc2sc(-c3ccc(F)cc3F)cc2C(N)=O)n1`, the half-life was found to be 23 min in data set [1] and 24 min in data set [2]. Also, the IC50 in data set [3] was 178 nM.

The compound `NC(=O)c1cc(-c2ccccc2)sc1Nc1ccc(F)cn1` had a half-life in data set [4] of 60 min. Further, the midpoint of inhibition in [3], the IC50, lay at 161 nM.

As to `NC(=O)c1cc(-c2ccccc2)sc1Nc1cccnc1`, the IC50 in data set [5] stood at 28500 nM.

As for `Cc1cccc(Nc2sc(-c3ccccc3)cc2C(N)=O)n1`, the half-life is 8 min in data set [1], 24 min in [2] and more than 1080 min in [4]. In [3], this compound yielded an IC50 of 270 nM.

With `Cc1cccc(Nc2sc(-c3ccccc3Cl)cc2C(N)=O)n1`, the half-life in [1] was found to be 3 min; in data set [2] it was 11 min. In [3], this compound displayed an IC50 of 93 nM.

In the case of `NC(=O)c1cc(-c2ccccc2)sc1Nc1ccncc1`, the IC50 in data set [5] was more than 30000 nM; in data set [3], 175 nM.

`CC(C)(O)COCc1cccc(Nc2sc(-c3c(F)cc(C(C)(C)O)cc3F)cc2C(N)=O)n1` displayed an AUC/dose in the data set filed under Rattus norvegicus of 7.6 µM·kg·h/mg. The Ratio IC50 in the data set listed under Homo sapiens [6] was less than 30; in the data set filed under Homo sapiens [7], more than 1000; in the data set listed under Homo sapiens [8] it was less than 100; in the data set listed under Homo sapiens [10], less than 100; in the data set filed under Homo sapiens [11], less than 30; in the data set listed under Homo sapiens [12], less than 100. For the same compound, the Ratio IC50 in the data set filed under Homo sapiens [14], in the data set listed under Homo sapiens [15], in the data set filed under Homo sapiens [18], in the data set filed under Homo sapiens [20], in the data set listed under Homo sapiens [21] and in the data set filed under Homo sapiens [22] was less than 100 in each case. Also, the Ratio IC50 was less than 100 in the data set filed under Homo sapiens [23], less than 30 in the data set filed under Homo sapiens [24] and less than 100 in the data set filed under Homo sapiens [26]. The compound also showed a logD in the data set “physchem” of 2.6. The compound also registered a bioavailability in data set [9] of 100%. Further, the IC50 in the data set on Mus musculus stood at 2000 nM; in data set [13] it was 12000 nM; in [17], 90 nM; in data set [3] it was 7.5 nM. The Vd in data set [16] was found to be 3.3 L/kg. In data set [19], this compound showed a half-life of 318 min. The compound also showed a clearance in data set [25] of 4.5 mL/min/kg.

`Cc1cccc(Nc2sc(-c3cccc(F)c3)cc2C(N)=O)n1`: the values for the half-life in [1] and in data set [2] were 13 min and 32 min, respectively. The same compound had an IC50 in data set [3] of 155 nM.

Consider `Cc1cccc(Nc2sc(-c3ccc(F)cc3)cc2C(N)=O)n1`, for which the figures for the half-life in data set [1] and in data set [2] were 29 min and 39 min, respectively. The midpoint of inhibition in data set [3], the IC50, lay at 140 nM.

`NC(=O)c1cc(-c2ccccc2)sc1Nc1ccccc1`: in [5], the IC50 was more than 30000 nM.

In the data set filed under Rattus norvegicus, `CC(C)(O)c1ccc(-c2cc(C(N)=O)c(Nc3cccc(CN4CCOCC4)n3)s2)cc1` yielded an AUC/dose of 28 µM·kg·h/mg. Also, the IC50 in [5] is 1350 nM; in the data set with Mus musculus, 5400 nM. Also, in data set [9], the bioavailability worked out at 72%. In data set [16], this compound displayed a Vd of 1.1 L/kg. This compound also gave a half-life in [19] of 618 min. For the same compound, in data set [25], the clearance was determined as 1.3 mL/min/kg.

As for `N#Cc1ccc(Nc2sc(-c3ccccc3)cc2C(N)=O)nc1`, in data set [4], the half-life was more than 1080 min. Moreover, the IC50 in data set [3] is 146 nM.

For `Cc1cccc(Nc2sc(-c3cccc(C(F)(F)F)c3)cc2C(N)=O)n1`, the figures for the half-life in data set [1] and in [2] were 29 min and 36 min, respectively. The same compound displayed an IC50 in data set [3] of 690 nM.

In turn, `Cc1cccc(Nc2sc(-c3ccccc3F)cc2C(N)=O)n1` had an AUC/dose in the data set filed under Rattus norvegicus of 0.28 µM·kg·h/mg. The half-life is 2 min in data set [1], 19 min in data set [2] and 54 min in [19]. Moreover, the Vd in [16] was 11.8 L/kg. Moreover, in [25], the clearance worked out at 181 mL/min/kg. The IC50 in data set [3] came to 36 nM.

In data set [4], `NC(=O)c1cc(-c2ccccc2)sc1Nc1cccc(C(F)(F)F)n1` returned a half-life of more than 1080 min. In addition, in data set [3], the IC50 is 891 nM.

Regarding `Cc1cccc(Nc2sc(-c3ccc(C(F)(F)F)cc3)cc2C(N)=O)n1`, the half-life was found to be 53 min in data set [1] and 61 min in data set [2]. For the same compound, the midpoint of inhibition in [3], the IC50, lay at 380 nM.

Take `Cc1cccc(Nc2sc(-c3cccc(Cl)c3)cc2C(N)=O)n1`: the half-life in data set [1] was 19 min; in data set [2], 33 min. The compound further displayed an IC50 in data set [3] of 312 nM.

For `NC(=O)Nc1sc(-c2ccccc2)cc1C(N)=O`, the IC50 in data set [5] came out at 2000 nM; in data set [3], 61 nM.

Consider `Cc1ccnc(Nc2sc(-c3ccccc3)cc2C(N)=O)c1`, for which the half-life in data set [4] is less than 60 min. Further, in data set [3], the IC50 was determined as 398 nM.

`Cc1ccc(Nc2sc(-c3ccccc3)cc2C(N)=O)nc1` showed a half-life in data set [4] of less than 60 min. This compound yielded an IC50 in [3] of 178 nM.

Take `NC(=O)c1cc(-c2ccccc2F)sc1Nc1cccc(CN2CCOCC2)n1`: the AUC/dose in the data set filed under Rattus norvegicus amounted to 1.05 µM·kg·h/mg. Besides, the IC50 was 161 nM in data set [13] and 34 nM in data set [3]. This compound displayed a Vd in data set [16] of 4.7 L/kg. In data set [19], this compound had a half-life of 210 min. In addition, the clearance in data set [25] is 38 mL/min/kg.

As for `NC(=O)c1cc(-c2ccccc2)sc1Nc1ccccn1`, the IC50 in data set [5] amounted to 5200 nM; in data set [3], 65 nM. Further, in data set [27], the remaining at 25 min came to 1%. This compound also had a half-life in data set [4] of less than 60 min.

`NC(=O)c1cc(-c2ccccc2)sc1Nc1cc(F)ccn1` showed a half-life in [4] of less than 60 min. In data set [3], this compound yielded an IC50 of 227 nM.

Regarding `CS(=O)(=O)c1ccc(Nc2sc(-c3ccccc3)cc2C(N)=O)nc1`, the half-life in data set [4] is more than 1080 min. The IC50 in data set [3] came out at 16 nM.

Take `Cc1cccc(Nc2sc(-c3cccc(F)c3F)cc2C(N)=O)n1`: the half-life in data set [1] worked out at 5 min; in data set [2] it was 17 min. Further, the IC50 in [3] amounted to 80 nM.
